{"source": "patent US12575768B2", "about": "“Analyte sensor antimicrobial configurations and adhesives” (Abbott Diabetes Care, Inc., priority 2018, dated 2026)", "system": "gram-positive bacteria strains associated with common skin flora and wound infection", "test": "modified Kirby-Bauer disk diffusion assay, overall conclusion", "assay_type": "cell-based", "conditions": "conclusion from zone of inhibition measurements of Table 1", "experimental": "Example 3: […] Testing of Silver-Based Antimicrobial Quality. In this example, sensors membranes comprising the silver-based antimicrobial compounds of Example 2 (tested in quadruplicate for each of the sensors in Example 2) and the Control of Example 2 were evaluated […] against a variety of gram-positive bacteria strains associated with common skin flora and wound infection, and which were nosocomial-derived using a modified Kirby-Bauer disk diffusion assay for antibiotic susceptibility testing. The bacteria used for evaluation were Staphylococcus aureus (MRSA) (ATCC #33591), Staphylococcus epidermidis (ATCC #12228), Enterococcus faecalis (ATCC #4082), and Streptococcus pyogenes (ATCC #19615). Each were cultured on Tryptic Soy Agar, except for S. pyogenes, which were cultured on Blood Agar."}
{"smiles": "[Ag][I]", "note": "[silver iodide]", "values": [{"measurement": "antimicrobial properties (in words)", "result": "demonstrate antimicrobial properties"}]}
{"smiles": "[Cl][Ag]", "note": "[silver chloride]", "values": [{"measurement": "antimicrobial properties (in words)", "result": "demonstrate antimicrobial properties"}]}
